From US12258339B2, “Macrocyclic complexes of alpha-emitting radionuclides and their use in targeted radiotherapy of cancer” (Cornell University, priority 2018, dated 2025) come the findings set out here.

Structures are written as SMILES.

The nature of series [1]: Kinetic inertness of [^225Ac(macropa)]^+: challenge with 50-fold excess La^3+. The note with it: 50-fold excess of La^3+, macropa 0.59 μM, RT, over 7 days. In kind it is physicochemical. The method, then: General. Stock solutions of La(NO3)3 (0.001 M or 0.1 M) were prepared in H2O. To the radiolabeled samples containing macropa (10 μL of 10^−5 M stock; 1.0×10^−10 moles) or DOTA (10 μL of 10^−3 M stock; 1.0×10^−8 moles) and ^225Ac (10 μL, 26 kBq) in NH4OAc buffer (pH 6, 0.15 M, 150 μL), a 50-fold mole excess of La^3+ was added (5 μL, of 0.001 M or 0.1 M stock were added to solutions containing macropa and DOTA, respectively). The solutions were kept at room temperature and analyzed by iTLC at several time points over the course of 8 days. The iTLC plates were developed using citric acid (0.05 M, pH 5) as the eluent. Under these conditions, [^225Ac(macropa)]^+ and [^225Ac(DOTA)]^− remained at the baseline (RF=0) and any unchelated ^225Ac (^225Ac-citrate) migrated with the solvent front (RF=1). Percent of complex remaining intact was calculated by integrating area under the peaks on the radiochromatogram and dividing the counts associated with the ^225Ac-complex (RF=0) by the total counts integrated along the length of the iTLC plate.
The long half-life of ^225Ac necessitates its stable complex retention in vivo to avoid off-target damage to normal tissues arising from the release of free ^225Ac^3+. Furthermore, the stability of ^225Ac complexes against transmetalation and transchelation needs to be high. […]

A short description of series [2]: Stability of [^225Ac(macropa)]^+ in human serum. Particulars: radio-TLC. In kind it is in vitro ADME. How it is done: […]. [^225Ac(macropa)]^+ and [^225Ac(DOTA)]^− were prepared using 10^−5 M and 10^−3 M stock solutions (10 μL) of macropa and DOTA, respectively, to give final ligand concentrations of 5.9×10^−7 M (macropa) and 5.9×10^−5 M (DOTA). After confirming a radiochemical yield of >90% by TLC using 0.4 M sodium citrate (pH 4) containing 10% MeOH as the mobile phase, 160 μL of human serum (an equal volume based on labeling reaction volume) were added to each radiolabeled solution. A control solution was also prepared in which water was substituted for ligand. The solutions were monitored over the course of 8 days by iTLC. The plates were developed with EDTA (50 mM, pH 5) as the eluent. Under these conditions, [^225Ac(macropa)]^+ and [^225Ac(DOTA)]^− complexes remained at the baseline (RF=0) and any ^225Ac (^225Ac-EDTA) that had been transchelated by serum migrated with the solvent front (RF=1). Percent of complex remaining intact was calculated.
The long half-life of ^225Ac necessitates its stable complex retention in vivo to avoid off-target damage to normal tissues arising from the release of free ^225Ac^3+. Furthermore, the stability of ^225Ac complexes against transmetalation and transchelation needs to be high. To determine the kinetic inertness, [^225Ac(macropa)]^+ was challenged with La^3+ because of the established high affinity of macropa for this metal ion. […]

`O=C([O-])c1cccc(CN2CCOCCOCCN(Cc3cccc(C(=O)[O-])n3)CCOCCOCC2)n1.[225Ac+3]` [[^225Ac(macropa)]^+]: the “^225Ac complex remained intact by radio-TLC” value in series [1] is listed as 98%. In addition, in series [2], the “time ^225Ac^3+ remains complexed in human serum” value is on record as “at least 8 days”.
